Results published in US6376710B2, “Amidine compounds and their use as pesticides” (Sumitomo Chemical Co., Ltd., priority 2000, dated 2002).
Read-outs that look alike come from different tables or passages of the source.

How the values were obtained:
Format in all cases: in vivo
[1] = test system: German cockroach (Blattella germanica); assay: Test Example 2: treated filter paper with sucrose bait, German cockroach male adults, mortality; settings: 144 h
[2] = test system: house fly (Musca domeestica); assay: Test Example 3: treated filter paper with sucrose bait, house fly female adults, mortality; settings: 24 h
Method: On the bottom of a polyethylene cup of 5.5 cm in diameter was placed a filter paper of the same size, to which a water dilution (500 ppm) of each of the formulations obtained from present compounds 1, 2, 3, 4, 5, 6, 7, 8, 9, 10, 11, 12, 13, 14, 15, 16, 17, 18, 19, 20, 21, 25, 26, 27, 28, 29, 32, 33, 34, 35, 36, 37, 38, 39, 40, 41, 42, 43, 44, 45, 47, 51, 52, 53, 54, 55, 60, and 61 according to Formulation Example 1 was added dropwise in an amount of 0.7 ml, and the cup was uniformly charged with about 30 mg of sucrose as a bait. Ten female adults of house fly (Musca domeestica) were set free in each cup, which was then kept covered. After 1 day, their survival was examined to determine the mortality.

[3] = test system: common mosquito (Culex pipiens pallens); assay: Test Example 4: treated water, common mosquito final-instar larvae, mortality; settings: 192 h

N#Cc1cc(C(F)(F)F)cc(Cl)c1N=C(N)C(F)(F)C(F)(F)F [present compound 14, N-(2-Chloro-6-cyano-4-trifluoromethylphenyl)-2,2,3,3,3-pentafluoropropionamidine]
100%: mortality at 500 µg/mL [1] | mortality at 500 µg/mL [2] | mortality at 3.5 ppm [3]

Cc1cc(C(F)(F)F)cc(Cl)c1N=C(N)C(F)(F)C(F)(F)F [present compound 15, N-(2-Chloro-6-methyl-4-trifluoromethylphenyl)-2,2,3,3,3-pentafluoropropionamidine]
100%: mortality at 500 µg/mL [1] | mortality at 500 µg/mL [2] | mortality at 3.5 ppm [3]

NC(=Nc1c(Br)cc(OC(F)(F)F)cc1Br)C(F)(F)C(F)(F)F [present compound 16, N-(2,6-Dibromo-4-trifluoromethoxyphenyl)-2,2,3,3,3-pentafluoropropionamidine]
100%: mortality at 500 µg/mL [1] | mortality at 500 µg/mL [2] | mortality at 3.5 ppm [3]

NC(=Nc1c(Br)cc(C(F)(F)F)cc1Br)C(F)(F)C(F)(F)F [present compound 17, N-(2,6-Dibromo-4-trifluoromethylphenyl)-2,2,3,3,3-pentafluoropropionamidine]
100%: mortality at 500 µg/mL [1] | mortality at 500 µg/mL [2] | mortality at 3.5 ppm [3]

NC(=Nc1c(Cl)cc(OC(F)(F)F)cc1Cl)C(F)(F)C(F)(F)F [present compound 18, N-(2,6-Dichloro-4-trifluoromethoxyphenyl)-2,2,3,3,3-pentafluoropropionamidine]
100%: mortality at 500 µg/mL [1] | mortality at 500 µg/mL [2] | mortality at 3.5 ppm [3]

NC(=Nc1c(F)cc(C(F)(F)F)cc1Cl)C(F)(F)C(F)(F)F [present compound 19, N-(2-Chloro-6-fluoro-4-trifluoromethylphenyl)-2,2,3,3,3-pentafluoropropionamidine]
100%: mortality at 500 µg/mL [1] | mortality at 500 µg/mL [2] | mortality at 3.5 ppm [3]

NC(=Nc1c(Cl)cc(C(F)(F)F)cc1Cl)C(F)(F)C(F)F [present compound 20, N-(2,6-Dichloro-4-trifluoromethylphenyl)-2,2,3,3-tetrafluoropropionamidine]
100%: mortality at 500 µg/mL [1] | mortality at 500 µg/mL [2] | mortality at 3.5 ppm [3]

NC(=Nc1c([N+](=O)[O-])cc(C(F)(F)F)cc1[N+](=O)[O-])C(F)(F)C(F)(F)C(F)(F)F [present compound 21, N-(2,6-Dinitro-4-trifluoromethylphenyl)-2,2,3,3,4,4,4-heptafluorobutyramidine]
100%: mortality at 500 µg/mL [1] | mortality at 500 µg/mL [2] | mortality at 3.5 ppm [3]

NC(=Nc1c([N+](=O)[O-])cc(C(F)(F)F)cc1[N+](=O)[O-])C(F)(F)Br [present compound 25, 2-Bromo-2,2-difluoro-N-(2,6-dinitro-4-trifluoromethylphenyl) acetamidine]
100%: mortality at 500 µg/mL [1] | mortality at 500 µg/mL [2] | mortality at 3.5 ppm [3]

NC(=Nc1c([N+](=O)[O-])cc(C(F)(F)F)cc1[N+](=O)[O-])C(F)(F)C(F)F [present compound 26, N-(2,6-Dinitro-4-trifluoromethylphenyl)-2,2,3,3-tetrafluoropropionamidine]
100%: mortality at 500 µg/mL [1] | mortality at 500 µg/mL [2] | mortality at 3.5 ppm [3]

NC(=Nc1c(Br)cc(C(F)(F)F)cc1[N+](=O)[O-])C(F)(F)C(F)(F)F [present compound 27, N-(2-Bromo-6-nitro-4-trifluoromethylphenyl)-2,2,3,3,3-pentafluoropropionamidine]
100%: mortality at 500 µg/mL [1] | mortality at 500 µg/mL [2] | mortality at 3.5 ppm [3]

NC(=Nc1c([N+](=O)[O-])cc(C(F)(F)F)cc1[N+](=O)[O-])C(F)(F)Cl [present compound 28, 2-Chloro-2,2-difluoro-N-(2,6-dinitro-4-trifluoromethylphenyl)acetamidine]
100%: mortality at 500 µg/mL [1] | mortality at 500 µg/mL [2] | mortality at 3.5 ppm [3]

NC(=Nc1c([N+](=O)[O-])cc(C(F)(F)F)cc1[N+](=O)[O-])C(F)(Br)C(F)(F)F (stereo not drawn) [present compound 29, 2-Bromo-N-(2,6-dinitro-4-trifluoromethylphenyl)-2,3,3,3-tetrafluoropropionamidine]
100%: mortality at 500 µg/mL [1] | mortality at 500 µg/mL [2] | mortality at 3.5 ppm [3]

NC(=Nc1c(Cl)cc(C(F)(F)F)cc1[N+](=O)[O-])C(F)(F)C(F)(F)C(F)(F)F [present compound 32, N-(2-Chloro-6-nitro-4-trifluoromethylphenyl)-2,2,3,3,4,4,4-heptafluorobutyramidine]
100%: mortality at 500 µg/mL ([1]; water dilution (500 ppm) of flowable (Formulation Example 1), 0.7 ml on filter paper, male adults, after 6 days, read-out: mortality) | mortality at 500 µg/mL ([2]; water dilution (500 ppm) of flowable (Formulation Example 1), 0.7 ml on filter paper, female adults, after 1 day, read-out: mortality) | mortality at 3.5 ppm ([3]; active ingredient 3.5 ppm in ion-exchanged water (0.7 ml of 500 ppm dilution), final-instar larvae, after 8 days, read-out: mortality)

NC(=Nc1c([N+](=O)[O-])cc(C(F)(F)F)cc1[N+](=O)[O-])C(F)(Cl)Cl [present compound 34, 2,2-Dichloro-N-(2,6-dinitro-4-trifluoromethylphenyl)-2-fluoroacetamidine]
100%: mortality at 500 µg/mL [1] | mortality at 500 µg/mL [2] | mortality at 3.5 ppm [3]

NC(=Nc1c([N+](=O)[O-])cc(C(F)(F)F)cc1[N+](=O)[O-])C(F)(F)C(F)(F)Cl [present compound 35, 3-Chloro-N-(2,6-dinitro-4-trifluoromethylphenyl)-2,2,3,3-tetrafluoropropionamidine]
100%: mortality at 500 µg/mL [1] | mortality at 500 µg/mL [2] | mortality at 3.5 ppm [3]

CC(F)(F)C(N)=Nc1c([N+](=O)[O-])cc(C(F)(F)F)cc1[N+](=O)[O-] [present compound 36, 2,2-Difluoro-N-(2,6-dinitro-4-trifluoromethylphenyl)propionamidine]
100%: mortality at 500 µg/mL [1] | mortality at 500 µg/mL [2] | mortality at 3.5 ppm [3]

NC(=Nc1c([N+](=O)[O-])cc(C(F)(F)F)cc1[N+](=O)[O-])C(F)(F)C(F)(Cl)C(F)(F)Cl (stereo not drawn) [present compound 37, 3,4-Dichloro-N-(2,6-dinitro-4-trifluoromethylphenyl)-2,2,3,4,4-pentafluorobutyramidine]
100%: mortality at 500 µg/mL [1] | mortality at 500 µg/mL [2] | mortality at 3.5 ppm [3]

NC(=Nc1c([N+](=O)[O-])cc(C(F)(F)F)cc1[N+](=O)[O-])C(F)(F)C(F)(F)C(F)(F)C(F)F [present compound 38, N-(2,6-Dinitro-4-trifluoromethylphenyl)-2,2,3,3,4,4,5,5-octafluoropentanamidine]
100%: mortality at 500 µg/mL [1] | mortality at 500 µg/mL [2] | mortality at 3.5 ppm [3]

NC(=Nc1c([N+](=O)[O-])cc(C(F)(F)F)cc1[N+](=O)[O-])C(F)(F)C(F)(F)Br [present compound 39, 3-Bromo-N-(2,6-dinitro-4-trifluoromethylphenyl)-2,2,3,3-tetrafluoropropionamidine]
100%: mortality at 500 µg/mL [1] | mortality at 500 µg/mL [2] | mortality at 3.5 ppm [3]

NC(=Nc1c([N+](=O)[O-])cc(C(F)(F)F)cc1[N+](=O)[O-])C(F)(Cl)C(F)(F)Br (stereo not drawn) [present compound 40, 3-Bromo-2-chloro-N-(2,6-dinitro-4-trifluoromethylphenyl)-2,3,3-trifluoropropionamidine]
100%: mortality at 500 µg/mL [1] | mortality at 500 µg/mL [2] | mortality at 3.5 ppm [3]

COC(F)(C(N)=Nc1c([N+](=O)[O-])cc(C(F)(F)F)cc1[N+](=O)[O-])C(F)(F)F (stereo not drawn) [present compound 41, N-(2,6-Dinitro-4-trifluoromethylphenyl)-2-methoxy-2,3,3,3-tetrafluoropropionamidine]
100%: mortality at 500 µg/mL [1] | mortality at 500 µg/mL [2] | mortality at 3.5 ppm [3]

NC(=Nc1c([N+](=O)[O-])cc(C(F)(F)C(F)(F)F)cc1[N+](=O)[O-])C(F)(F)C(F)(F)C(F)(F)F [present compound 42, N-(2,6-Dinitro-4-pentafluoroethylphenyl)-2,2,3,3,4,4,4-heptafluorobutyramidine]
100%: mortality at 500 µg/mL [1] | mortality at 500 µg/mL [2] | mortality at 3.5 ppm [3]

NC(=Nc1c([N+](=O)[O-])cc(C(F)(F)C(F)(F)F)cc1[N+](=O)[O-])C(F)(F)C(F)(F)F [present compound 43, N-(2,6-Dinitro-4-pentafluoroethylphenyl)-2,2,3,3,3-pentafluoropropionamidine]
100%: mortality at 500 µg/mL [1] | mortality at 500 µg/mL [2] | mortality at 3.5 ppm [3]

NC(=Nc1c([N+](=O)[O-])cc(C(F)(F)F)cc1[N+](=O)[O-])C(F)(F)C(F)C(F)(F)F (stereo not drawn) [present compound 44, N-(2,6-Dinitro-4-trifluoromethylphenyl)-2,2,3,4,4,4-hexafluorobutyramidine]
100%: mortality at 500 µg/mL [1] | mortality at 500 µg/mL [2] | mortality at 3.5 ppm [3]

NC(=Nc1c([N+](=O)[O-])cc(OC(F)(F)F)cc1[N+](=O)[O-])C(F)(F)C(F)(F)C(F)(F)F [present compound 45, N-(2,6-Dinitro-4-trifluoromethoxyphenyl)-2,2,3,3,4,4,4-heptafluorobutyramidine]
100%: mortality at 500 µg/mL [1] | mortality at 500 µg/mL [2] | mortality at 3.5 ppm [3]

NC(=Nc1c([N+](=O)[O-])cc(C(F)(F)C(F)(F)C(F)(F)F)cc1[N+](=O)[O-])C(F)(F)C(F)(F)F [present compound 47, N-(2,6-Dinitro-4-heptafluoropropylphenyl)-2,2,3,3,3-pentafluoropropionamidine]
100%: mortality at 500 µg/mL [1] | mortality at 500 µg/mL [2] | mortality at 3.5 ppm [3]
